Measured values as given in patent US6800770B2, “Anti-spasticity of an eicosanoid analog” (Virginia Commonwealth University, priority 2002, dated 2004).

Experiments:
CB1 = biological target: T1, CB1 (Rattus norvegicus, UniProt P20272); type: binding; conditions: displacement of [3H]CP55940, whole rat brain membranes; means ± S.D., n=3; read-out: CB1 affinity (Ki)
T1 construct: from whole rat brain membranes; from tissue; host or cells: whole rat brain membranes

human VR1 receptors = biological target: T2, human VR1 receptors (Homo sapiens, UniProt Q8NER1); experiment: Enhancement of [Ca2+] via HEK-hVR1 cells; type: cell-based
T2 construct: expressed in transfected cells; host or cells: HEK-hVR1 cells
Text: J. Pharm. Exp. Ther. 300: 984.

[1] = tested on: spasticity in Biozzi ABH mice; conditions: 0.05 mg/kg i.v.; baseline vs 30 min after treatment
Description: This was assessed to detect limb stiffness by analysis using a strain gauge (Baker et al 2000). The analogue signal from the strain gauge was amplified and digitally converted using an ComputerBoards Inc PCM-DAS16S/12 card (Amplicon, Brighton, UK). This was captured using Dacquire V10 software (D.Buckwell, Institute of Neurology, UK) and analyzed using Spike 2 software (Cambridge Electronics Design, UK). The hindlimbs were fully extended twice then moved to full flexion against the strain gauge. The mean of 4-8 individual readings per limb was taken for each time point. Results are expressed as means of forces of resistance to flexion (in Newtons) and SEM per group.
Statistical analysis was performed using Sigmastat 2.0 (Jandel/SPSS, USA) using one-way repeated measures analysis of variance (ANOVA) incorporating a pair-wise Student-Newman-Keuls (SNK) test. […] N=13 limbs analyzed from 8 spastic animals.
Arvanil treatment was carried out with and without pretreatment of the animals with SR141617A, SR144528 (known to inhibit CB1 and CB2 receptor function, respectively) and capsazepine, a known antagonist of the vanilloid recpetor (VR-1).

T2 sequence (Q8NER1 whole entry): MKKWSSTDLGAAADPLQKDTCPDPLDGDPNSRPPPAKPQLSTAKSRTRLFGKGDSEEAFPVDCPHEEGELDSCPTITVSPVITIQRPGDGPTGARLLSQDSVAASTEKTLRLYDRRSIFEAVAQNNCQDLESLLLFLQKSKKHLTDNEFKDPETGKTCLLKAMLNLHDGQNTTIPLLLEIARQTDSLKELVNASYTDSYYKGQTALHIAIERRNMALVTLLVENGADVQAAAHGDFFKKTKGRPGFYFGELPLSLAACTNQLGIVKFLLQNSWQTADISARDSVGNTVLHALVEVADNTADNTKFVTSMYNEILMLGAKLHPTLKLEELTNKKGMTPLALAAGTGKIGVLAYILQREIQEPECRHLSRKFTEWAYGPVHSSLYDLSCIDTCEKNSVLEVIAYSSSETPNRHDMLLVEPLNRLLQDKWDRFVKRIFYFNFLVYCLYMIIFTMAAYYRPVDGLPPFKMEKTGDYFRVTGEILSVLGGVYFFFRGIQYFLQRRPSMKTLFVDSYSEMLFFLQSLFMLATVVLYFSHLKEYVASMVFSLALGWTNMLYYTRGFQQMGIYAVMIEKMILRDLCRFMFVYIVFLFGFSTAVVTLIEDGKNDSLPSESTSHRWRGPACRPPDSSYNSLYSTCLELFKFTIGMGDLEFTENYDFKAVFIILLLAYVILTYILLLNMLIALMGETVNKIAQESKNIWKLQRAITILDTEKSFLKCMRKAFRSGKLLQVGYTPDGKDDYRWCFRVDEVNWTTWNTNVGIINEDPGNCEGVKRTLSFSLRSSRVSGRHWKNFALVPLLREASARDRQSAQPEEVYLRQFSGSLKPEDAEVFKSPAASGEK
T1 sequence (P20272 whole entry): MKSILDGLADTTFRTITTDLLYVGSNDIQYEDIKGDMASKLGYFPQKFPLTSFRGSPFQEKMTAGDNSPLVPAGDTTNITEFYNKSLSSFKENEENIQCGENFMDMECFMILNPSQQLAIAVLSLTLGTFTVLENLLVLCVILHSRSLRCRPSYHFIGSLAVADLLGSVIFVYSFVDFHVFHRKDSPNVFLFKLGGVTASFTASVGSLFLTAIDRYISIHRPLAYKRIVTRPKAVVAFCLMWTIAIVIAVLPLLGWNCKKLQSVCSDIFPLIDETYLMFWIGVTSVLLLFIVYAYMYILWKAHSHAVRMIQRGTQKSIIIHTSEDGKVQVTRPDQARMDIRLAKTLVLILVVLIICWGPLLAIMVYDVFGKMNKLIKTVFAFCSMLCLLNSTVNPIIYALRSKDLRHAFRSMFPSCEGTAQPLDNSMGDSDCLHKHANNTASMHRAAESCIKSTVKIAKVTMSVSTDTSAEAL

`CCCCC/C=C\C/C=C\C/C=C\C/C=C\CCCC(=O)N(Cc1ccc(O)c(Cl)c1)Cc1ccc(O)c(Cl)c1` [O-2093, N,N-Di-3-chloro-4-hydroxybenzylarachadonamide] was tested, and the Ki (CB1) was 1290 ± 140 nM, the Emax (human VR1 receptors; in parentheses in the hVR1 potency column, read-out: hVR1 efficacy (maximal effect as percentage of the effect of 4 μM capsaicin)) was 26.9% and the EC50 (human VR1 receptors; read-out: hVR1 potency (EC50), means ± S.D., n=3) was > 50000 nM. The “decrease in resistance to flexion” value [1] was ~35%.
